Each block holds one molecule with its values, some of them ahead of it.
Assays:
Assay in all cases: competitive isoTOP-ABPP
Type in all cases: binding
[1] = biological target: T1, CPOX Coproporphyrinogen-III oxidase, mitochondrial (Homo sapiens, UniProt P36551); set-up: key to isoTOP-ABPP reactivity ratio at lysine P36551_K404: R = MS1 peak area ratio, DMSO (heavy) / compound-treated (light); settings: for isoTOP-ABPP ratio (R) at liganded lysine P36551_K404: sol, 231
T1 construct: isoTOP-ABPP experiments performed in cell lysates (in vitro); endogenous in cells; host or cells: soluble proteome of human cancer cell lines (MDA-MB-231; Ramos and Jurkat also prepared)
T1 sequence (P36551 111-454): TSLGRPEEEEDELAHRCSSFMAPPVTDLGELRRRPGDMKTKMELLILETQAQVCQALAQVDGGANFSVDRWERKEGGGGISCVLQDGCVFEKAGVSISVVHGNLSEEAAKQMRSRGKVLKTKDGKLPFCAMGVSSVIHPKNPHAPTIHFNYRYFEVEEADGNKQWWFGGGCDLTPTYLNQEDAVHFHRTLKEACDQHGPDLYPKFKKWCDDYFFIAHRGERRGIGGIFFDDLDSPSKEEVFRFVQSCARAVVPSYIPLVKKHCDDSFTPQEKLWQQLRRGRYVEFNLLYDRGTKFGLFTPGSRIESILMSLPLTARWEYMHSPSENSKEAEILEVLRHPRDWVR
Procedure: (§1) In vitro covalent fragment treatment for isoTOP-ABPP. All compounds were made up as solutions in DMSO (100×) and were used at a final concentration of 50 μM for activated esters and 100 μM for guanidinylating agents. For each profiling sample, 0.5 ml of lysate was treated with 5 μl of the 100× compound stock solution or 5 μl of DMSO. Samples were treated with activated esters for
(§2) STP-alkyne labeling and click chemistry. For concentration-dependent reactivity measurements by isoTOP-ABPP, 0.5 ml proteome aliquots were treated at ambient temperature with 1 mM STP-alkyne 1 (5 μl of 100 mM stock in DMSO) and 0.1 mM STP alkyne 1 (5 μl of 10 mM stock in DMSO), respectively. For competitive isoTOP-ABPP, after in vitro fragment treatment (detailed above), the samples were labeled for 1 h at ambient temperature with 0.1 mM STP-alkyne 1 (5 μl of 10 mM stock in DMSO). Samples were conjugated by copper-mediated azide-alkyne cycloaddition (CuAAC) to either the light (1 mM STP-alkyne or fragment treated) or heavy (0.1 mM STP-alkyne or DMSO treated) TEV tags (10 μl of 5 mM stocks in DMSO, final concentration=100 μM) using tris(2-carboxyethyl)phosphine hydrochloride
(§3) R value calculation and processing. The ratios of light and heavy MS1 peaks for each unique peptide were quantified with a CIMAGE software using default parameters (3 MS1 acquisitions per peak and signal to noise threshold set to 2.5). For reactivity measurements by isoTOP-ABPP, the R value was calculated from the ratio of MS1 peak areas, comparing the 1 mM STP alkyne sample (light TEV tag) with the 0.1 mM STP alkyne sample (heavy TEV tag). For competitive isoTOP-ABPP, the R value was calculated from the ratio of MS1 peak areas, comparing the DMSO treated sample (heavy TEV tag) with the compound treated sample (light TEV tag). […] Ratios for unique peptide entries are calculated for each experiment; overlapping peptides with the same modified lysine (for example, different charge states, MudPIT chromatographic steps or tryptic termini) are grouped together and the median ratio is reported as the final ratio (R). The peptide ratios reported by CIMAGE were further filtered to ensure the removal or correction of low-quality ratios in each individual data set. The quality filters applied were the following: removal of half tryptic peptides; for ratios with high standard deviations from the median (90% of the median or above) the lowest ratio was taken instead of the median; removal of peptides with R=20 and only a single MS2 event triggered during the elution of the parent ion; manual annotation of all the peptides with ratios of 20, removing any peptides with low quality elution profiles that remained after the previous curation steps (only done for competitive isoTOP-ABPP).
(§4) Cross-data processing for fragment screening. For compound treated samples, biological replicates of the same condition were averaged, if the standard deviation was below 60% of the mean; otherwise, for lysines with at least one R value <4 for a particular compound, the lowest value of the ratio set was taken. For lysines, where all R values for a particular compound were ≥4, the average was reported. For peptides containing several possible modified lysines, the lysine with the highest number of quantification events was used for analysis and the remaining, redundant peptides were reported as alternative modification sites. Peptides included in the aggregate dataset (those used for further bioinformatics and statistical analyses) were required to have been quantified in 2 experiments for competitive isoTOP-ABPP. Lysines were categorized as liganded, if they had at least one ratio R≥4 (hit fragments). For liganded lysines with R=20 for all liganding events, lysines were required to have been quantified with R=20 in two separate experiments and were further required to have been quantified with R<20 in one additional experiment.

[2] = biological target: T2, TPMT Thiopurine S-methyltransferase (Homo sapiens, UniProt P51580); set-up: key to isoTOP-ABPP reactivity ratio at lysine P51580_K32: R = MS1 peak area ratio, DMSO (heavy) / compound-treated (light); settings: for isoTOP-ABPP ratio (R) at liganded lysine P51580_K32: sol, 231
T2 construct: isoTOP-ABPP experiments performed in cell lysates (in vitro); endogenous in cells; host or cells: soluble proteome of human cancer cell lines (MDA-MB-231; Ramos and Jurkat also prepared)
T2 sequence (P51580 1-245): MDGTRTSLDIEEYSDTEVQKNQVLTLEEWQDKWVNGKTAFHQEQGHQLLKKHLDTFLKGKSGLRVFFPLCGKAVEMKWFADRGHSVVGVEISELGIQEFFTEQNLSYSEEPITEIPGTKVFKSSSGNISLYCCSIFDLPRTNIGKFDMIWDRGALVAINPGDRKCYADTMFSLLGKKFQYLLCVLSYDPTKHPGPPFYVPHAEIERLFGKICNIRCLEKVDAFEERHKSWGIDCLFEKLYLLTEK
Procedure: as §1, §2, §3, §4

[3] = biological target: T3, ISOC2 Isochorismatase domain-containing protein 2, mitochondrial (Homo sapiens, UniProt Q96AB3); set-up: key to isoTOP-ABPP reactivity ratio at lysine Q96AB3_K178: R = MS1 peak area ratio, DMSO (heavy) / compound-treated (light); capped at 20; settings: for isoTOP-ABPP ratio (R) at liganded lysine Q96AB3_K178: sol, 231
T3 construct: isoTOP-ABPP experiments performed in cell lysates (in vitro); endogenous in cells; host or cells: soluble proteome of human cancer cell lines (MDA-MB-231; Ramos and Jurkat also prepared)
T3 sequence (Q96AB3 1-205): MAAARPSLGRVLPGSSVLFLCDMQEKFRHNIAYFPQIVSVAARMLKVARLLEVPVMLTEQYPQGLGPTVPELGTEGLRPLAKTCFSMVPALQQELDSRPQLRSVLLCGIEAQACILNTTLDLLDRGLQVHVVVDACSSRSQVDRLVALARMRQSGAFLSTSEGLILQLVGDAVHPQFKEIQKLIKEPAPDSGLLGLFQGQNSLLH
Procedure: as §1, §2, §3, §4

[4] = biological target: T4, MAP1LC3B Microtubule-associated proteins 1A/1B light chain (Homo sapiens, UniProt Q9GZQ8); set-up: key to isoTOP-ABPP reactivity ratio at lysine Q9GZQ8_K51: R = MS1 peak area ratio, DMSO (heavy) / compound-treated (light); settings: for isoTOP-ABPP ratio (R) at liganded lysine Q9GZQ8_K51: sol, 231
T4 construct: isoTOP-ABPP experiments performed in cell lysates (in vitro); endogenous in cells; host or cells: soluble proteome of human cancer cell lines (MDA-MB-231; Ramos and Jurkat also prepared)
Procedure: as §1, §2, §3, §4

R value (DMSO/fragment) for probe 1 labeling ([1]; P36551_K404, 50 uM, 231 sol, in vitro): 1.1 | R value (DMSO/fragment) for probe 1 labeling ([2]; P51580_K32, 50 uM, 231 sol, in vitro): 0.9 | R value (DMSO/fragment) for probe 1 labeling ([3]; Q96AB3_K178, 50 uM, 231 sol, in vitro): 0.9 | R value (DMSO/fragment) for probe 1 labeling ([4]; Q9GZQ8_K51, 50 uM, 231 sol, in vitro): 0.9
SMILES: O=C(Oc1c(F)c(F)c(F)c(F)c1F)C(c1ccccc1)c1ccccc1 [fragment 20, Pentafluorophenyl 2,2-diphenylacetate]

SMILES: O=C(Oc1ccc([N+](=O)[O-])cc1[N+](=O)[O-])c1cc(C(F)(F)F)cc(C(F)(F)F)c1 [fragment 31, 2,4-Dinitrophenyl 3,5-bis(trifluoromethyl)benzoate]
isoTOP-ABPP reactivity ratio at lysine P36551_K404 ([1]; 50 uM, 231 sol, in vitro): 1.1 | isoTOP-ABPP reactivity ratio at lysine P51580_K32 ([2]; 50 uM, 231 sol, in vitro): 2.5 | isoTOP-ABPP reactivity ratio at lysine Q96AB3_K178 ([3]; 50 uM, 231 sol, in vitro): 2.1 | isoTOP-ABPP reactivity ratio at lysine Q9GZQ8_K51 ([4]; 50 uM, 231 sol, in vitro): 1.1

isoTOP-ABPP ratio, lysine P36551_K404 ([1]; 100 uM_231_sol_in vitro): 1.8 | isoTOP-ABPP ratio, lysine P51580_K32 ([2]; 100 uM_231_sol_in vitro): 11.7 | isoTOP-ABPP ratio, lysine Q96AB3_K178 ([3]; 100 uM_231_sol_in vitro): 1.1 | isoTOP-ABPP ratio, lysine Q9GZQ8_K51 ([4]; 100 uM_231_sol_in vitro): 4.6
SMILES: CC(C)(C)OC(=O)N=C(NC(=O)OC(C)(C)C)n1cccn1 [fragment 50, reference compound]

SMILES: O=C(Oc1ccc([N+](=O)[O-])cc1[N+](=O)[O-])c1ccccc1Nc1cccc(C(F)(F)F)c1 [fragment 40, 2,4-Dinitrophenyl 2-((3-(trifluoromethyl)phenyl)amino)benzoate]
isoTOP-ABPP ratio (R) at liganded lysine P36551_K404 ([1]; 50 uM, in vitro): 1.8 | isoTOP-ABPP ratio (R) at liganded lysine P51580_K32 ([2]; 50 uM, in vitro): 1.1 | isoTOP-ABPP ratio (R) at liganded lysine Q96AB3_K178 ([3]; 50 uM, in vitro): 0.9 | isoTOP-ABPP ratio (R) at liganded lysine Q9GZQ8_K51 ([4]; 50 uM, in vitro): 1.0

SMILES: N#Cc1ccc(C(=O)Oc2ccc([N+](=O)[O-])cc2[N+](=O)[O-])cc1 [fragment 44, 2,4-Dinitrophenyl 4-cyanobenzoate]
isoTOP-ABPP ratio, lysine P36551_K404 ([1]; 50 uM_231_sol_in vitro): 1.0 | isoTOP-ABPP ratio, lysine P51580_K32 ([2]; 50 uM_231_sol_in vitro): 1.4 | isoTOP-ABPP ratio, lysine Q96AB3_K178 ([3]; 50 uM_231_sol_in vitro): 1.3 | isoTOP-ABPP ratio, lysine Q9GZQ8_K51 ([4]; 50 uM_231_sol_in vitro): 0.9

SMILES: O=C(Oc1ccc([N+](=O)[O-])cc1[N+](=O)[O-])C(c1ccccc1)c1ccccc1 [fragment 30, 2,4-Dinitrophenyl 2,2-diphenylacetate]
isoTOP-ABPP reactivity ratio at lysine P36551_K404 ([1]; 50 uM, 231 sol, in vitro): 1.1 | isoTOP-ABPP reactivity ratio at lysine P51580_K32 ([2]; 50 uM, 231 sol, in vitro): 1.5 | isoTOP-ABPP reactivity ratio at lysine Q96AB3_K178 ([3]; 50 uM, 231 sol, in vitro): 1.0 | isoTOP-ABPP reactivity ratio at lysine Q9GZQ8_K51 ([4]; 50 uM, 231 sol, in vitro): 1.2

SMILES: O=C(Oc1ccc([N+](=O)[O-])cc1[N+](=O)[O-])c1ccc(Oc2ccccc2)cc1 [fragment 39, 2,4-Dinitrophenyl 4-phenoxybenzoate]
isoTOP-ABPP ratio (R) at liganded lysine P36551_K404 ([1]; 50 uM, in vitro): 1.0 | isoTOP-ABPP ratio (R) at liganded lysine P51580_K32 ([2]; 50 uM, in vitro): 1.0 | isoTOP-ABPP ratio (R) at liganded lysine Q96AB3_K178 ([3]; 50 uM, in vitro): 0.9 | isoTOP-ABPP ratio (R) at liganded lysine Q9GZQ8_K51 ([4]; 50 uM, in vitro): 0.9

SMILES: O=C(Oc1ccc([N+](=O)[O-])cc1[N+](=O)[O-])c1ccc(-c2ccccc2)cc1 [fragment 37, 2,4-Dinitrophenyl [1,1′-biphenyl]-4-carboxylate]
isoTOP-ABPP ratio (R) at liganded lysine P36551_K404 ([1]; 50 uM, in vitro): 1.0 | isoTOP-ABPP ratio (R) at liganded lysine P51580_K32 ([2]; 50 uM, in vitro): 1.5 | isoTOP-ABPP ratio (R) at liganded lysine Q96AB3_K178 ([3]; 50 uM, in vitro): 0.9 | isoTOP-ABPP ratio (R) at liganded lysine Q9GZQ8_K51 ([4]; 50 uM, in vitro): 0.9
